Test results as given in patent publication US6808936B1, “Methods and compositions for use in the diagnosis and treatment of chronic immune disease” (R.E.D. Laboratories, N.V., priority 2000, dated 2004).

Assays:
Assay in all cases: Caspase activity in extracts of U937 cell line induced to apoptosis with camptothecin
Type in all cases: cell-based, human
caspase 9 = conditions: U937 Cell Line Induced (G3), camptothecin 10 micrograms per mL; n 4; uninduced 45 ± 6
Procedure: (§1) Caspase levels in PBMC extracts were measured using a commercially available kit (BioSource International) based on a calorimetric assay. Briefly, PBMC extracts were diluted to a final concentration of 1 microgram of protein per 50 microliters of diluent (provided with the kit). This sample (1 microgram) was then added to 55 microliters of assay buffer containing a substrate specific for the particular caspase to be measured (if caspase activity is present, the substrate is cleaved, liberating color). Cell extracts to be used as positive and negative controls for caspase activity levels were prepared using the method of […] et al. (1999), Oncogene 14:1007-1012). Briefly, the human monocytic leukemia cell line U937 was induced to begin apoptosis by treatment with camptothecin at a concentration of 10 micrograms per mL of 2×10^6 cells. Uninduced cells were used as the negative control. Also included as a negative control were normal human monocytes, elutriated and frozen as live cells. All cell extracts and protein determinations were made as described above. The reaction mixture (1 microgram protein sample+caspase substrate) was incubated at 37 degrees C. for 20-24 hours. The resultant color was measured using a spectrophotometer at a wavelength of 405 nm. Background absorbance (i.e., from a reagent blank without protein) was subtracted from all sample values. All assays were performed in triplicate, […]

caspase 8 = conditions: U937 Cell Line Induced (G3), camptothecin 10 micrograms per mL; n 4; uninduced 91 ± 11
Procedure: as §1

caspase 3 = test system: caspase 3
Procedure: as §1

caspase 6 = conditions: U937 Cell Line Induced (G3), camptothecin 10 micrograms per mL; n 4; uninduced 162 ± 20
Procedure: as §1

caspase 2 = conditions: U937 Cell Line Induced (G3), camptothecin 10 micrograms per mL; n 4; uninduced 50 ± 32
Procedure: as §1

Question: For `CC[C@@]1(O)C(=O)OCc2c1cc1n(c2=O)Cc2cc3ccccc3nc2-1` [camptothecin], which C9 caspase activity (caspase 9) is on record?
Answer: 90 ± 29

Question: What about the C8 caspase activity (caspase 8) of the same molecule?
Answer: 207 ± 52

Question: What about the “Caspase 3 Activity” value (caspase 3; Table 2: U937 Cell Line Induced (G3), camptothecin, mean ± s.d. of triplicates, uninduced 82 ± 9) of the same molecule?
Answer: 336 ± 6 mAU

Question: What about the C3 caspase activity (caspase 3; U937 Cell Line Induced (G3), camptothecin 10 micrograms per mL, n 4, uninduced 73 ± 26) of the same molecule?
Answer: 304 ± 50

Question: And the C6 caspase activity (caspase 6)?
Answer: 277 ± 57

Question: And the C2 caspase activity (caspase 2)?
Answer: 251 ± 39
